# Assay results published in patent publication US4456611A, “Derivatives of 2-[3-(3-indoly)2-amino propionyloxy] acetic acid, and seritoning increasing use thereof” (Laboratoires Panmedica, priority 1981, dated 1984).
# Test system: endogenous serotonin in the brain
# Experiment: biochemical assay of endogenous serotonin in the brain of rats after oral administration of a single dose
# Format: in vivo
# Details: orally, single dose of 10 mg/kg, Wistar male adult rats
# Protocol: The compounds according to the invention show remarkable pharmacological activities, in particular on the central nervous system. These assays were carried out after administration orally of a single dose of 10 mg/kg in Wistar male adult rats.
row,SMILES,% increase of brain serotonin [%]
1,"CCCCCCCCCCCCOC(=O)COC(=O)[C@@H](N)Cc1c[nH]c2ccc(O)cc12 [Example 13b, n-dodecyl L-2-[3-(5-hydroxy 3-indolyl) 2-aminopropionyloxy]acetate]",26
2,"CCCCOC(=O)COC(=O)[C@@H](N)Cc1c[nH]c2ccc(O)cc12 [Example 8b, n-butyl L-2-[3-(5-hydroxy 3-indolyl) 2-aminopropionyloxy]acetate]",20
3,"CCOC(=O)COC(=O)[C@@H](N)Cc1c[nH]c2ccc(O)cc12 [Example 6b, Ethyl L-2-[3-(5-hydroxy 3-indolyl) 2-aminopropionyloxy]acetate]",22
4,"CC(OC(=O)COC(=O)[C@@H](N)Cc1c[nH]c2ccc(O)cc12)C(C)(C)C (stereo partly drawn) [Example 14c, (3,3-dimethyl) 2-butyl L-2-[3-(5-hydroxy 3-indolyl) 2-aminopropionyloxy]acetate]",32
5,"CCCCCCCCOC(=O)COC(=O)[C@@H](N)Cc1c[nH]c2ccc(O)cc12 [Example 12b, n-octyl L-2-[3-(5-hydroxy 3-indolyl) 2-aminopropionyloxy]acetate]",15
6,"N[C@@H](Cc1c[nH]c2ccc(O)cc12)C(=O)OCC(=O)OCC12CC3CC(CC(C3)C1)C2 [Example 15b, 1-adamantyl methyl L-2-[3-(5-hydroxy 3-indolyl) 2-aminopropionyloxy]acetate]",17
7,"N[C@@H](Cc1c[nH]c2ccc(O)cc12)C(=O)O [(L)5 HTP, 5-hydroxy-tryptophane, reference compound]",10

# Test system: not listed separately
# Experiment: acute toxicity in the mouse (LD50)
# Details: in vivo, po, orally
# Protocol: The acute toxicities of the derivatives according to the invention in the mouse are very much less than those of L 5-HTP. Thus the LD50's of all of the compounds according to the invention are higher than 1250 mg/kg, whereas the LD50 (orally) of L 5-HTP is equal to 700 mg/kg.
row,SMILES,LD50 [mg/kg]
1,"N[C@@H](Cc1c[nH]c2ccc(O)cc12)C(=O)O [(L)5 HTP, 5-hydroxy-tryptophane, reference compound]",700
